From patent publication US20020156094A1, “Sulfonamide interleukin-1beta converting enzyme inhibitors” (Warner-Lambert Company, priority 1996, published 2002)
Where “and” joins values, the source holds several entries; their conditions need not be identical. Equal values may be shown once.

Tests used:
[1] = target: T1, ICE (interleukin-1β converting enzyme, Caspase-1) (Homo sapiens, UniProt P29466); assay: ICE Ki fluorescence assay (Ac-Tyr-Val-Ala-Asp-AMC hydrolysis); assay type: biochemical; settings: ICE 0.24 nM, 15 μM Ac-Tyr-Val-Ala-Asp-AMC, reversible competitive model
T1 sequence (P29466 120-297 limits assumed): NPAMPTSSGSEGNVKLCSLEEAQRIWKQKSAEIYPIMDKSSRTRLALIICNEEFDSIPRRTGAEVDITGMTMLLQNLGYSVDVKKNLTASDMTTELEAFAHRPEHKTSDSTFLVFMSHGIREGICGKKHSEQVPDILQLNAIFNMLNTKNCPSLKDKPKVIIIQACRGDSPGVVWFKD
T1 sequence (P29466 317-404 limits assumed): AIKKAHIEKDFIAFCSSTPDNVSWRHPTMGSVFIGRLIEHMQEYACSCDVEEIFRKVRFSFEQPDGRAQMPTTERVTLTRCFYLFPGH
Description: Substrate hydrolysis is monitored for 300 seconds by observing the fluorescence of released AMC using excitation at 380 nm and emission at 460 nm. Mean rates of substrate hydrolysis are evaluated by linear-regression analysis of the fluorescence vs time traces. To evaluate Ki, plots of percent inhibition vs inhibitor concentration are fit by non-linear regression to a reversible, competitive model: [formula]
Where the competition factor (1+[S]/KM)=2.

[2] = target: T1, ICE (interleukin-1β converting enzyme, Caspase-1); assay: ICE Colorimetric Dose-Response (IC50) Assay; assay type: biochemical; settings: ICE approx. 24 nM, 60 min preincubation, 50 μM Ac-Tyr-Val-Ala-Asp-pNA, 25° C.
Description: ICE Colorimetric Dose-Response (IC50) Assay
(§1) Diluted inhibitor stocks are prepared by two-fold serial dilution from a primary stock whose concentration is selected (based on screening results or on prior attempts at IC50 evaluation) to achieve approximately 95% inhibition in the most concentrated well. Aliquots of each dilution are transferred to a microtitre plate in triplicate.
(§2) ICE enzyme is diluted to approximately 24 nM in HGE buffer (100 mM HEPES pH 7.5, 0.5 mM EDTA, 20% glycerol, 0.1% Bovine Serum Albumin (BSA)), and activated by adding dithiothreitol (DTT) to a final concentration of 5 mM. The activated enzyme is then aliquoted into wells containing inhibitor or vehicle, and the plate is preincubated for 60 minutes at ambient temperature. Substrate (Ac-Tyr-Val-Ala-Asp-pNA) is added to each well to a final concentration of 50 μM, and plates are placed in the microtitre plate-reader thermostated to 25° C. Beginning 5 minutes after addition of substrate, absorbance (405 nm) of wells is monitored for 1 hour, and activity is calculated as the mean rate of change in absorbance during this interval.

[3] = target: T2, Ich-2 (Caspase-4) (Homo sapiens, UniProt P49662); assay: Ich-2 (Caspase-4) Colorimetric Dose-Response (IC50) Assay; assay type: biochemical; settings: enzyme 64 nM, substrate Ac-Leu-Glu-Val-Asp-pNA
T2 sequence (P49662 81-270 limits assumed): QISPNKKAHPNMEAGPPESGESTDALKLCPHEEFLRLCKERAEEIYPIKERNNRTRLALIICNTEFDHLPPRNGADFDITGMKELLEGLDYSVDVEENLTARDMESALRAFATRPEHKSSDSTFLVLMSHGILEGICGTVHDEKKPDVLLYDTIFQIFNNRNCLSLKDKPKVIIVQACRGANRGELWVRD
T2 sequence (P49662 290-377 limits assumed): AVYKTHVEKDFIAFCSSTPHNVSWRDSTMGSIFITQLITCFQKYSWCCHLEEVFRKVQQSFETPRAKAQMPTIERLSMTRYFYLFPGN
Description: as §1, §2
Ich-2 (Caspase-4) Colorimetric Dose-Response (IC50) Assay
Inhibition of Ich-2 enzyme is assayed as described above for ICE, except that enzyme is used at 64 nM, and 60 µM of the Ich-2-specific substrate Ac-Leu-Glu-Val-Asp-pNA is used instead of the ICE substrate Ac-Tyr-Val-Ala-Asp-pNA.

Row | Compound | Ki [1] | IC50 [2] [µM] | IC50 [3] [µM] | melting point [°C]
1 | O=C(O)CC(NC(=O)OCc1ccccc1)C(=O)CNS(=O)(=O)CCCc1ccccc1 (stereo not shown) [Example 2b, 3-Benzloxycarbonylamino-4-oxo-5-(3-phenylpropane-1-sulfonylamino)-pentanoic acid] | 34.5 µM and 32 µM | 245 | 8590 | 96 to 104
2 | CC(=O)NC(Cc1ccc(O)cc1)C(=O)NC(CCC(=O)O)C(=O)NC(C(=O)NC(CC(=O)O)C(=O)CNS(=O)(=O)CC12CCC(CC1=O)C2(C)C)C(C)C (stereo not shown) [Example 4e, 3-(2-{2-[2-Acetylamino-3-(4-hydroxy-phenyl)-propionylamino]-4-carboxy-butyrylamino}-3-methyl-butyrylamino)-5-(7,7-dimethyl-2-oxo-bicyclo[2.2.1]hept-1-ylmethanesulfonylamino)-4-oxo-pentanoic acid] | 0.00011 µM | 0.002 | 0.7 | 
3 | CC(C)C(NC(=O)C(CCC(=O)O)NC(=O)OCc1ccccc1)C(=O)NC(CC(=O)O)C(=O)CNS(=O)(=O)CC12CCC(CC1=O)C2(C)C (stereo not shown) [Example 4f, 3-[2-(2-Benzyloxycarbonylamino-4-carboxy-butyrylamino)-3-methyl-butyrylamino]-5-(7,7-dimethyl-2-oxo-bicyclo[2.2.1]hept-1-ylmethanesulfonylamino)-4-oxo-pentanoic acid] | 0.00061 µM | 0.002 | 3.2 | 
4 | O=C(O)C[C@H](NC(=O)CN1CCc2ccccc2C1=O)C(=O)CNS(=O)(=O)CC12CCC(CC1)C2 [Example 5b, (S)-5-(Bicyclo[2.2.1]hept-1-ylmethanesulfonylamino)-4-oxo-3-[2-(1-oxo-3,4-dihydro-1H-isoquinolin-2-yl)-acetylamino]-pentanoic acid] | 20 µM | 165 | 252 | 
